Assay results published in ChEMBL document CHEMBL1146910, “Selectively guanidinylated derivatives of neamine. Syntheses and inhibition of anthrax lethal factor protease” (Bioorg Med Chem Lett, 2006).

Assays:
Settings in all cases: read-out: Ki app
Lethal factor = target: T1, Lethal factor (Bacillus anthracis, UniProt P15917)
T1 sequence (P15917 whole entry): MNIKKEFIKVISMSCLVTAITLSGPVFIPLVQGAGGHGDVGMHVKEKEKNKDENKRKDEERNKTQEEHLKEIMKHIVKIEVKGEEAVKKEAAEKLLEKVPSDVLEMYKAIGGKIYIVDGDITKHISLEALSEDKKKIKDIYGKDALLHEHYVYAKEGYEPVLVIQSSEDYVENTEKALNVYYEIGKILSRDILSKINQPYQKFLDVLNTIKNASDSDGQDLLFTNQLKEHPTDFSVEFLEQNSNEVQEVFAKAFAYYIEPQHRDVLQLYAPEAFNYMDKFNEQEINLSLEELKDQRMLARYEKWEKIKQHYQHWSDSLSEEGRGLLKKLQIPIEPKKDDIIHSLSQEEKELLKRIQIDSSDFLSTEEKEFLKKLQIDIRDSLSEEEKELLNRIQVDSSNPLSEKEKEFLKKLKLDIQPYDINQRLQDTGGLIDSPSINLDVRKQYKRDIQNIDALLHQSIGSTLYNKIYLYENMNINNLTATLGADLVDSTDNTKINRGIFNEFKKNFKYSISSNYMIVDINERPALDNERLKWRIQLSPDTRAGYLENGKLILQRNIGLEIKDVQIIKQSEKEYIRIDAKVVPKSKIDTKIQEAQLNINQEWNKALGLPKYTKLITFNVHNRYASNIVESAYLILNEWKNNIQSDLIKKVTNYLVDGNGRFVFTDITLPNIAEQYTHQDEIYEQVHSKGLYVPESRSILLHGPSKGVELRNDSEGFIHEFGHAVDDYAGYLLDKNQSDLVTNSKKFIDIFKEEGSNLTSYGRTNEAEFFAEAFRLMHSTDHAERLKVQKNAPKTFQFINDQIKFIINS

Interstitial collagenase = target: T2, Interstitial collagenase (Homo sapiens, UniProt P03956); assay: Activity at MMP1
T2 sequence (P03956 whole entry): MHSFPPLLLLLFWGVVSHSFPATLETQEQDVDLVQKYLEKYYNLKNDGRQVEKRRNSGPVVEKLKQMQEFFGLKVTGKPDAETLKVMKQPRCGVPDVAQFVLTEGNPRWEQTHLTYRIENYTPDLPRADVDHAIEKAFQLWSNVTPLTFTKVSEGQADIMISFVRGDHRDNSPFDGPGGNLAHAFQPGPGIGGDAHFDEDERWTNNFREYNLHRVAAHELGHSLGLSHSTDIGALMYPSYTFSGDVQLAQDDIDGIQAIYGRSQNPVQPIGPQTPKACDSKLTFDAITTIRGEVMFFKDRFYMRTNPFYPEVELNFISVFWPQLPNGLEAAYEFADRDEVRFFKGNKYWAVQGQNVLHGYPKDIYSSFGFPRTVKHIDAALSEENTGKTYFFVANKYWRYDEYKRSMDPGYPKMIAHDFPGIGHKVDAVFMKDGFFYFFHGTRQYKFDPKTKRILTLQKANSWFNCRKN

[1] = target: Matrix metalloproteinase-9 (Homo sapiens, UniProt P14780); assay: Activity at MMP9
Stromelysin-1 = Stromelysin-1 (Homo sapiens, UniProt P08254); assay: Activity at MMP3
[2] = target: Matrix metalloproteinase-14 (Homo sapiens, UniProt P50281); assay: Activity at MMP14
[3] = target: Macrophage metalloelastase (Homo sapiens, UniProt P39900); assay: Activity at MMP12
Macrophage metalloelastase, sequence (P39900 whole entry): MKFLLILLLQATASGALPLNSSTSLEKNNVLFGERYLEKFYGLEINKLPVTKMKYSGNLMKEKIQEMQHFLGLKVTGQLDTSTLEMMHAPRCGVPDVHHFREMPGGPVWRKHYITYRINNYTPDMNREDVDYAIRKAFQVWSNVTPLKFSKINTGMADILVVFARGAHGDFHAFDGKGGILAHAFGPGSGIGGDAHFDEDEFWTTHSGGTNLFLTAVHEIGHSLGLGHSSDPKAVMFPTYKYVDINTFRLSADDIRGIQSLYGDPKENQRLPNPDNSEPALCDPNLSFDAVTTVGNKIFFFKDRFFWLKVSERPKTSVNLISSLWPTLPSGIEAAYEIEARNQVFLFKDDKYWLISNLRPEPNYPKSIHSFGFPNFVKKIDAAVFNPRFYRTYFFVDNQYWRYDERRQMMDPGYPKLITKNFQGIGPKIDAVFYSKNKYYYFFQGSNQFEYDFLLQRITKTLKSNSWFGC

Matrix metalloproteinase-9, sequence (P14780 whole entry): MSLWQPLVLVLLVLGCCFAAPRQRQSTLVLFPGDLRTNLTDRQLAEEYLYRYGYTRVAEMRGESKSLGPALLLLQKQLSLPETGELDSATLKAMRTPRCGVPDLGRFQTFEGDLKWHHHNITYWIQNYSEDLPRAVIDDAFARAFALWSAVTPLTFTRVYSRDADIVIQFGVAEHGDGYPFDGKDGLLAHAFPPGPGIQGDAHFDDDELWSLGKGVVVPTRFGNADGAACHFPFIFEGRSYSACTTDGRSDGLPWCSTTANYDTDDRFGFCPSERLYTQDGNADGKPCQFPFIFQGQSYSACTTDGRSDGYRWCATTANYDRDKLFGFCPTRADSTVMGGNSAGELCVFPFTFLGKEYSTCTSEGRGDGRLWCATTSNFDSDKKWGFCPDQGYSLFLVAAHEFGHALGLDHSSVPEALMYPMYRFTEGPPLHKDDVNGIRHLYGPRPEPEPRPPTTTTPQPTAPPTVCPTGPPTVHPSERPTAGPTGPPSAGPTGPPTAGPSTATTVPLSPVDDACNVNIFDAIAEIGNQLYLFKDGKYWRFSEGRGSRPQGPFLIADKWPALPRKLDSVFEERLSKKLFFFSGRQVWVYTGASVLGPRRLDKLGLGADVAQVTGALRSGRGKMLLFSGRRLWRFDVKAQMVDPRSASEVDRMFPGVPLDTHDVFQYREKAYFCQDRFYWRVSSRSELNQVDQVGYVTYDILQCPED
Stromelysin-1, sequence (P08254 whole entry): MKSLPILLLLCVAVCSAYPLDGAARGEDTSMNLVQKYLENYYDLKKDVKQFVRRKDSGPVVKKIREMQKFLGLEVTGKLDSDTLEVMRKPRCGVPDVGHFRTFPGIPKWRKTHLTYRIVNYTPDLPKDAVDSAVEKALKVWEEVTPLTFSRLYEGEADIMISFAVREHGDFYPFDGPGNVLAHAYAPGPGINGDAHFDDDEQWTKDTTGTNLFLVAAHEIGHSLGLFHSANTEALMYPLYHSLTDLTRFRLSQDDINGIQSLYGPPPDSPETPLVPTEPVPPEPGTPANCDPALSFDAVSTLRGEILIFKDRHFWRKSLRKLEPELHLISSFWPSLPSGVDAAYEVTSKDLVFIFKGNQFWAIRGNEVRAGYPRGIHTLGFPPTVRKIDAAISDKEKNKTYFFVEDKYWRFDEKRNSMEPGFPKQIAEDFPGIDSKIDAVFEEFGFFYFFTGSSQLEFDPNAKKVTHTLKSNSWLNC

Structure (SMILES): NC(N)=NC[C@H]1O[C@H](O[C@H]2[C@H](O)[C@@H](O)[C@H](N=C(N)N)C[C@@H]2N)[C@H](N)[C@@H](O)[C@@H]1O
- Ki (Lethal factor): 10.2 µM

Structure (SMILES): NC[C@H]1O[C@H](O[C@H]2[C@H](O)[C@@H](O)[C@H](N=C(N)N)C[C@@H]2N=C(N)N)[C@H](N)[C@@H](O)[C@@H]1O
- Ki (Lethal factor): 5.6 µM

Structure (SMILES): NC[C@H]1O[C@H](O[C@H]2[C@H](O)[C@@H](O)[C@H](N=C(N)N)C[C@@H]2N)[C@H](N=C(N)N)[C@@H](O)[C@@H]1O
- Ki (Lethal factor): 5.3 µM

Structure (SMILES): NC(N)=NC[C@H]1O[C@H](O[C@H]2[C@H](O)[C@@H](O)[C@H](N)C[C@@H]2N)[C@H](N=C(N)N)[C@@H](O)[C@@H]1O
- Ki (Lethal factor): 7.7 µM

Structure (SMILES): NC[C@H]1O[C@H](O[C@H]2[C@H](O)[C@@H](O)[C@H](N)C[C@@H]2N=C(N)N)[C@H](N)[C@@H](O)[C@@H]1O
- Ki (Lethal factor): 5.2 µM

Structure (SMILES): NC[C@H]1O[C@H](O[C@H]2[C@H](O)[C@@H](O)[C@H](N)C[C@@H]2N=C(N)N)[C@H](N=C(N)N)[C@@H](O)[C@@H]1O
- Ki (Interstitial collagenase): > 300 µM
- Ki [1]: > 300 µM
- Ki (Stromelysin-1): > 300 µM
- Ki [2]: > 300 µM
- Ki [3]: > 300 µM
- Ki (Lethal factor): 0.7 µM

Structure (SMILES): N=C(N)NC[C@H]1O[C@H](O[C@H]2[C@H](O)[C@@H](O)[C@H](NC(=N)N)C[C@@H]2NC(=N)N)[C@H](NC(=N)N)[C@@H](O)[C@@H]1O
- Ki (Interstitial collagenase): > 300 µM
- Ki [1]: > 300 µM
- Ki (Stromelysin-1): > 300 µM
- Ki [2]: > 300 µM
- Ki [3]: > 300 µM
- Ki (Lethal factor): 0.7 µM

Structure (SMILES): CO[C@@H]1[C@@H](OC)[C@H](N=C(N)N)C[C@H](N=C(N)N)[C@H]1O[C@H]1O[C@H](CN=C(N)N)[C@@H](OC)[C@H](OC)[C@H]1N=C(N)N
- Ki (Interstitial collagenase): > 300 µM
- Ki [1]: > 300 µM
- Ki (Stromelysin-1): > 300 µM
- Ki [2]: > 300 µM
- Ki [3]: > 300 µM
- Ki (Lethal factor): 1.5 µM

Structure (SMILES): NC(N)=NC[C@H]1O[C@H](O[C@H]2[C@H](O)[C@@H](O)[C@H](N)C[C@@H]2N=C(N)N)[C@H](N=C(N)N)[C@@H](O)[C@@H]1O
- Ki (Lethal factor): 9.2 µM

Structure (SMILES): NC(N)=NC[C@H]1O[C@H](O[C@H]2[C@H](O)[C@@H](O)[C@H](N=C(N)N)C[C@@H]2N)[C@H](N=C(N)N)[C@@H](O)[C@@H]1O
- Ki (Lethal factor): 3.1 µM

Structure (SMILES): NC(N)=NC[C@H]1O[C@H](O[C@H]2[C@H](O)[C@@H](O)[C@H](N)C[C@@H]2N)[C@H](N)[C@@H](O)[C@@H]1O
- Ki (Lethal factor): 24.3 µM

Structure (SMILES): NC(N)=NC[C@H]1O[C@H](O[C@H]2[C@H](O)[C@@H](O)[C@H](N=C(N)N)C[C@@H]2N=C(N)N)[C@H](N)[C@@H](O)[C@@H]1O
- Ki (Lethal factor): 8.7 µM

Structure (SMILES): NC(N)=NC[C@H]1O[C@H](O[C@H]2[C@H](O)[C@@H](O)[C@H](N)C[C@@H]2N=C(N)N)[C@H](N)[C@@H](O)[C@@H]1O
- Ki (Lethal factor): 8.8 µM

Structure (SMILES): NC[C@H]1O[C@H](O[C@H]2[C@H](O)[C@@H](O)[C@H](N=C(N)N)C[C@@H]2N)[C@H](N)[C@@H](O)[C@@H]1O
- Ki (Lethal factor): 5 µM

Structure (SMILES): NC[C@H]1O[C@H](O[C@H]2[C@H](O)[C@@H](O)[C@H](N)C[C@@H]2N)[C@H](N=C(N)N)[C@@H](O)[C@@H]1O
- Ki (Lethal factor): 10.9 µM

Structure (SMILES): NC[C@H]1O[C@H](O[C@H]2[C@H](O)[C@@H](O)[C@H](N=C(N)N)C[C@@H]2N=C(N)N)[C@H](N=C(N)N)[C@@H](O)[C@@H]1O
- Ki (Interstitial collagenase): > 300 µM
- Ki [1]: > 300 µM
- Ki (Stromelysin-1): > 300 µM
- Ki [2]: > 300 µM
- Ki [3]: > 300 µM
- Ki (Lethal factor): 0.5 µM
